This passage reports Ki and Ratio Ki results from ChEMBL document CHEMBL1144186, “New iodoreboxetine analogues for SPECT imaging of the noradrenaline transporter” (Bioorg Med Chem Lett, 2008).

As usually defined, the Ki is the dissociation constant of the complex between target and ligand, obtained from inhibition or displacement.

Each structure is given as a SMILES string.

The nature of assay [1]: Displacement of [3H]nisoxetine from rat brain NAT. Format: tissue-based. For orientation: Loss of bound radioactivity is the signal in a displacement assay; it reports binding, not function.
Assay [2] has as its target Sodium-dependent serotonin transporter (Rattus norvegicus, UniProt P31652). Kind of assay: Displacement of [3H]citalopram from rat brain SERT.
Assay [3] addresses Sodium-dependent dopamine transporter (Rattus norvegicus, UniProt P23977). Kind of assay: Displacement of [3H]WIN-35428 from rat brain DAT. It is filed as tissue-based.
The species named for assay [4] is Rattus norvegicus. Kind of assay: Selectivity for rat NAT over rat DAT.
For assay [5], the species on record is Rattus norvegicus. The experiment in a line: Selectivity for rat NAT over rat SERT.

Chain of Sodium-dependent dopamine transporter (P23977 whole entry): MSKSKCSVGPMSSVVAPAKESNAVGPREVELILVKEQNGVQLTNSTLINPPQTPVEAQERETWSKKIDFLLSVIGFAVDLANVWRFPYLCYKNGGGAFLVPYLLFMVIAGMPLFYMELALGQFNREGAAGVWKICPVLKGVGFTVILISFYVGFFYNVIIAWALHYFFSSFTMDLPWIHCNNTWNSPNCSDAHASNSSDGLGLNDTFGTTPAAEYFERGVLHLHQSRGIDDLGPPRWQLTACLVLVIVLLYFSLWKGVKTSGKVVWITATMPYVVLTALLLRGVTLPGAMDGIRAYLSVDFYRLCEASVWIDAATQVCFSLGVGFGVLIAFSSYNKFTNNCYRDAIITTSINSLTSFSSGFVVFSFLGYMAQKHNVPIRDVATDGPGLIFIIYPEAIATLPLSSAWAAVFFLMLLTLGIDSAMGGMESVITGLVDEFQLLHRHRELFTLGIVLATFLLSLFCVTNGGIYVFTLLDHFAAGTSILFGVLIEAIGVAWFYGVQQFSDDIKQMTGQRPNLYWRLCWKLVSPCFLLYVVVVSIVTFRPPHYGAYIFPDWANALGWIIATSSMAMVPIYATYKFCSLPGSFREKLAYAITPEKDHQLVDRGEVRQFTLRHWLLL
Chain of Sodium-dependent serotonin transporter (P31652 whole entry): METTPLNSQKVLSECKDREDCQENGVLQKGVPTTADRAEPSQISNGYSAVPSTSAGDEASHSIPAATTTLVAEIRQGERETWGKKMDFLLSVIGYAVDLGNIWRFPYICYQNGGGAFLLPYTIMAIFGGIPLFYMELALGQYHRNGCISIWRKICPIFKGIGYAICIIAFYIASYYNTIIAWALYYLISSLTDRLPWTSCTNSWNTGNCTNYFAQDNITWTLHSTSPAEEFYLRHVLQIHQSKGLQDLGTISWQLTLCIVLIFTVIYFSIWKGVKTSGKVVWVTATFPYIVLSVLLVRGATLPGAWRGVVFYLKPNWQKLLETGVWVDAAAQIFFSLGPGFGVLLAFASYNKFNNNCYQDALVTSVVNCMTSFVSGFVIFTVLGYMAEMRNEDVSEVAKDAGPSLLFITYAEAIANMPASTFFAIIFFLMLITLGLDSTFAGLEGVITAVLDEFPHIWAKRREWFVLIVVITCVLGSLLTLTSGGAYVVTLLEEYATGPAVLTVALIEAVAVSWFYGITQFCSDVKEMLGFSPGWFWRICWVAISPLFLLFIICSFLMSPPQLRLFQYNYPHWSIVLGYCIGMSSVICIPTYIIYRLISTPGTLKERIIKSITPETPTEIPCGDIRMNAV

For the molecule `CCOc1ccccc1O[C@@H](c1ccc(I)cc1)[C@H]1CNCCO1`, the Ki in assay [1] was determined as 58.2 nM.
With `CCOc1ccccc1O[C@@H](c1ccc(I)cc1)[C@@H]1CNCCO1`, the Ki in assay [2] is 2790 nM; in assay [3], 1460 nM; in assay [1], 53.8 nM. Besides, the Ratio Ki in the assay filed under Rattus norvegicus [4] was 25; in the assay listed under Rattus norvegicus [5] it was 50.
Turning to `CCOc1ccccc1O[C@H](c1ccc(I)cc1)[C@H]1CNCCO1`, the Ki was 646 nM in assay [2], 716 nM in assay [3] and 64 nM in assay [1].
In assay [1], `CCOc1ccccc1O[C@H](c1ccc(I)cc1)[C@@H]1CNCCO1` displayed a Ki of 321 nM.
